Paper PMC5843628, “Phosphorylation of conserved phosphoinositide binding pocket regulates sorting nexin membrane targeting” (Nature Communications, 2018)

Target: full length human SNX3 (sorting nexin 3) (Homo sapiens, UniProt O60493)
Experiment: NMR chemical shift perturbation titration, […]-labelled protein
Format: binding

full length human SNX3 (sorting nexin 3), sequence (O60493 whole entry): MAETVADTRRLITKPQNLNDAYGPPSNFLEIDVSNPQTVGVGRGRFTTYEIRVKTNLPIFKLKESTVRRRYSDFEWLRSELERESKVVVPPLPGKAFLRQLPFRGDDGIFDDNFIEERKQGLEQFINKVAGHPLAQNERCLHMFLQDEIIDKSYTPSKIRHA

| Kd | Structure (SMILES) |
| --- | --- |
| 170 ± 34.1 µM | O=P(O)(O)O[C@@H]1[C@H](O)[C@H](OP(=O)(O)O)[C@@H](O)[C@H](O)[C@H]1O [Ins(1,3)P2] |
| 159 ± 36.1 µM | CCCC(=O)OC[C@H](COP(=O)(O)O[C@@H]1[C@H](O)[C@H](OP(=O)(O)O)[C@@H](O)[C@H](O)[C@H]1O)OC(=O)CCC [c4-PI3P] |
